Reference: ChEMBL document CHEMBL1152019, “A series of conformationally and sterically constrained analogs of N-phenyl-N-aralkylurea ACAT inhibitors” (Bioorg Med Chem Lett, 1995)
The source made the active and inactive calls. No cut-off for these calls is given here.

Key:
O-acyltransferase = O-acyltransferase (Oryctolagus cuniculus, UniProt G1SFD9); assay: In vitro inhibitory activity against ACAT was determined in rabbit intestinal microsome from cholesterol-fed animals; type: microsomes, Intestine
Rattus norvegicus [1] = assay: In vivo percent change of total cholesterol compared to control at a dose 30 mg/Kg in rats fed with cholic acid (0.5%), cholesterol (1.5%) and peanut oil (5.5%).; type: functional
Rattus norvegicus [2] = assay: Compound was evaluated in vivo for percent change of total cholesterol compared to control at a dose 30 mg/Kg in rats fed with cholic acid (0.5%), cholesterol (1.5%) and peanut oil (5.5%); No change; type: functional, organism-based

Chain of O-acyltransferase (G1SFD9 1-524): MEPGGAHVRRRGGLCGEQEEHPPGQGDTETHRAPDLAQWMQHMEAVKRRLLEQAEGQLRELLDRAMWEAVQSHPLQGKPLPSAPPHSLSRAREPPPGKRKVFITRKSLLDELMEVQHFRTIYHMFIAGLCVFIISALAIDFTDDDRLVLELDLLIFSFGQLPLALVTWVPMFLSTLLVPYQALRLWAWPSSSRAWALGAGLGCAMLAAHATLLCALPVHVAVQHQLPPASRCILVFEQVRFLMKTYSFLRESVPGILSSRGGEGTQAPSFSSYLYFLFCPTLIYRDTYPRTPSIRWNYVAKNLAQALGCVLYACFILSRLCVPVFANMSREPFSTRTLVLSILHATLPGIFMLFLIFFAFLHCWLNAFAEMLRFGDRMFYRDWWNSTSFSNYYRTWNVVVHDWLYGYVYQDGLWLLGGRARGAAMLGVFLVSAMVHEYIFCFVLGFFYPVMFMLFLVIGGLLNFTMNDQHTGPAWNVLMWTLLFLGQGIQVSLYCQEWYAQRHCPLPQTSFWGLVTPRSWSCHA

Row | Structure (SMILES) | IC50 (O-acyltransferase) [nM] | Change (Rattus norvegicus [1]) [%] | Change (Rattus norvegicus [2])
1 | CC(C)c1cccc(C(C)C)c1NC(=O)NCC(c1ccccc1)(c1ccccc1)c1ccccc1 | 91 | -68 | –
2 | CC(C)c1cccc(C(C)C)c1NC(=O)NOC(c1ccccc1)c1ccccc1 | – | -67 | –
3 | CC(C)c1cccc(C(C)C)c1NC(=O)NCCc1ccc2ccccc2c1 | – | -54 | –
4 | COc1cccc2c1CCC(NC(=O)Nc1c(C(C)C)cccc1C(C)C)C2 (stereo unspecified) | 17 | -39 | –
5 | CC(C)c1cccc(C(C)C)c1NC(=O)NCCc1ccccc1 | – | -16 | –
6 | CC(C)c1cccc(C(C)C)c1NC(=O)NC1CCc2ccccc21 (stereo unspecified) | 910 | – | inactive
7 | CC(C)c1cccc(C(C)C)c1NC(=O)NCCc1cccc2ccccc12 | – | -32 | –
8 | CC(C)c1cccc(C(C)C)c1NC(=O)NCC1(c2ccccc2)Cc2ccccc2C1 | 27 | -67 | –
9 | CC(C)c1cccc(C(C)C)c1NC(=O)NC1COc2ccccc2C1 (stereo unspecified) | 110 | -20 | –
10 | CC(C)c1cccc(C(C)C)c1NC(=O)NCC1(O)CCc2ccccc21 (stereo unspecified) | 810 | – | inactive
11 | CC(C)c1cccc(C(C)C)c1NC(=O)NCC1(c2ccccc2)CCCC1 | – | -70 | –
12 | CC(C)c1cccc(C(C)C)c1NC(=O)NC1CCc2ccccc2C12CCCC2 (stereo unspecified) | 31 | -49 | –
13 | CC(C)c1cccc(C(C)C)c1NC(=O)NC1CCc2ccccc2C1 (stereo unspecified) | 63 | -26 | –
14 | CC(C)c1cccc(C(C)C)c1NC(=O)NCC1c2ccccc2Oc2ccccc21 | 42 | -25 | –
15 | CC(C)c1cccc(C(C)C)c1NC(=O)NC1CCCc2ccccc21 (stereo unspecified) | – | – | inactive
16 | CC(C)c1cccc(C(C)C)c1NC(=O)NCC1(O)CCCc2ccccc21 (stereo unspecified) | 350 | – | inactive
17 | CC(C)c1cccc(C(C)C)c1NC(=O)NCC1c2ccccc2-c2ccccc21 | – | -41 | –
18 | CC(C)c1cccc(C(C)C)c1NC(=O)NOCc1cccc2ccccc12 | – | -32 | –
19 | CC(C)c1cccc(C(C)C)c1NC(=O)NCC1CCc2ccccc21 (stereo unspecified) | 27 | -49 | –
20 | CC(C)c1cccc(C(C)C)c1NC(=O)NCC1CCCc2ccccc21 (stereo unspecified) | 36 | -47 | –
21 | CC(C)c1cccc(C(C)C)c1NC(=O)NOC(c1ccccc1)(c1ccccc1)c1ccccc1 | – | -30 | –
22 | CC(C)c1cccc(C(C)C)c1NC(=O)NCC1(c2ccc(N(C)C)cc2)CCCC1 [NEVANIMIBE] | – | -76 | –
23 | CC(C)c1cccc(C(C)C)c1NC(=O)NC1Cc2ccccc2C1 | 96 | -8 | –
24 | CC(C)c1cccc(C(C)C)c1NC(=O)NCC(c1ccccc1)c1ccccc1 | – | -73 | –
25 | CC(C)c1cccc(C(C)C)c1NC(=O)NCC1=CCCc2ccccc21 | 29 | -33 | –
26 | CC(C)c1cccc(C(C)C)c1NC(=O)NCc1cccc2ccccc12 | 34 | -53 | –
